Assay results published in patent US8546608B2, “Proteasome inhibitors and methods of using the same” (Cephalon, Inc., priority 2003, dated 2013).

Tests used:
[1] = biological target: T1, 20S Human Erythrocyte Proteasome (HEP) (Homo sapiens, UniProt P20618+P28074); experiment: Chymotrypsin-like activity of 20S Human Erythrocyte Proteasome (HEP), IC50 determination; type: biochemical; conditions: assay of Example C, inhibition of HEP
T1 construct: 20S Human Erythrocyte Proteasome (HEP), purchased from Immatics Biotechnologies Inc; purchased Immatics Biotechnologies Inc., Tübingen, Germany; host or cells: human erythrocytes (natural source)
Method in brief: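 20S proteasome at 0.2 μg/mL (about 0.6 nM catalytic sites) in 20 mM Tris with 0.04% SDS, preincubated 15 min at 37° C with inhibitor before Suc-LLVY-AMC (100 μM final). AMC fluorescence read in the linear range; triplicates, IC50 from concentration series.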

[2] = biological target: T2, proteasome in Molt-4 cells (human leukemia) (Homo sapiens, UniProt P20618+P28074); type: cell-based; conditions: assay of Example E, inhibition of MOLT4; read-out: MOLT4 (EC50)
T2 sequence (P28074 60-263): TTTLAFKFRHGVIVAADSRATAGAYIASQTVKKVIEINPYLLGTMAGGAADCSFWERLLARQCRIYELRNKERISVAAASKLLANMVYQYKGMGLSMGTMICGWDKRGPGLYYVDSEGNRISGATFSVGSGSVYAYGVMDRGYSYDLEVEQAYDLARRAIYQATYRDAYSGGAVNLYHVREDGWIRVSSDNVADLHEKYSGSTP
T2 sequence (P20618 29-241): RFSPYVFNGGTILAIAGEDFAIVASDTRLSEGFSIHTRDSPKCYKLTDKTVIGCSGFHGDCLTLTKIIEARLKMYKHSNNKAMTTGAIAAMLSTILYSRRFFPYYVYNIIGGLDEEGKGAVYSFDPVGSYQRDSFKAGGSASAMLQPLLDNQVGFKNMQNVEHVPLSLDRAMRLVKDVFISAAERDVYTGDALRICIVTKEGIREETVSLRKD
Method in brief: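 Intact Molt-4 cells (6×10^6 cells/mL) in HEPES-buffered saline were preincubated with inhibitor 15 min at 37 °C, then given cell-permeable MeOSuc-FLF-AFC at 25 μM final.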

SMILES	IC50 [1] [nM]	EC50 [2] [nM]
CC(=O)SCCCCCC(=O)N[C@@H](CCCNC(=N)N[N+](=O)[O-])C(=O)N[C@@H](CC(C)C)B1O[C@@H]2C[C@@H]3C[C@@H](C3(C)C)[C@]2(C)O1 [D.3.161, 6-(Acetylsulfanyl)hexanamide,N-[(1S)-1-[[[(1R)-1-[(3aS,4S,6S,7aR)-hexahydro-3a,5,5-trimethyl-4,6-methano-1,3,2-benzodioxaborol-2-yl]-3-methylbutyl]amino]carbonyl]-4-[[imino(nitroamino)methyl]amino]butyl]]	< 10	200 to 2000
CC(C)C[C@H](NC(=O)[C@@H](NC(=O)c1ccccc1)[C@@H](C)O)B1O[C@@H]2C[C@@H]3C[C@@H](C3(C)C)[C@]2(C)O1 [D.3.174, Benzamide,N-[(1S,2R)-1-[[[(1R)-1-[(3aS,4S,6S,7aR)-hexahydro-3a,5,5-trimethyl-4,6-methano-1,3,2-benzodioxaborol-2-yl]-3-methylbutyl]amino]carbonyl]-2-hydroxypropyl]]	< 100	< 200
COCCOCCOCC(=O)N[C@H](C(=O)N[C@@H](CC(C)C)B1O[C@@H]2C[C@@H]3C[C@@H](C3(C)C)[C@]2(C)O1)[C@@H](C)O [D.3.175, 2-[2-(2-Methoxyethoxy)ethoxy]acetamide,N-[(1S,2R)-1-[[[(1R)-1-[(3aS,4S,6S,7aR)-hexahydro-3a,5,5-trimethyl-4,6-methano-1,3,2-benzodioxaborol-2-yl]-3-methylbutyl]amino]carbonyl]-2-hydroxypropyl]]	< 100	200 to 2000
CC(C)C[C@H](NC(=O)[C@@H](NC(=O)CCCc1ccccc1)[C@@H](C)O)B1O[C@@H]2C[C@@H]3C[C@@H](C3(C)C)[C@]2(C)O1 [D.3.176, 4-Phenylbutanamide,N-[(1S,2R)-1-[[[(1R)-1-[(3aS,4S,6S,7aR)-hexahydro-3a,5,5-trimethyl-4,6-methano-l53.2-benzodioxaborol-2-yl]-3-methylbutyl]amino]carbonyl]-2-hydroxypropyl]]	< 10	< 200
Cc1ccc(OCC(=O)N[C@H](C(=O)N[C@@H](CC(C)C)B2O[C@@H]3C[C@@H]4C[C@@H](C4(C)C)[C@]3(C)O2)[C@@H](C)O)cc1 [D.3.177, (4-Methylphenoxy)acetamide,N-[(1S,2R)-1-[[[(1R)-1-[(3aS,4S,6S,7aR)-hexahydro-3a,5,5-trimethyl-4,6-methano-1,3,2-benzodioxaborol-2-yl]-3-methylbutyl]amino]carbonyl]-2-hydroxypropyl]]	< 10	< 200
CCCCCC(=O)N[C@H](C(=O)N[C@@H](CC(C)C)B1O[C@@H]2C[C@@H]3C[C@@H](C3(C)C)[C@]2(C)O1)[C@@H](C)O [D.3.178, Hexanamide,N-[(1S,2R)-1-[[[(1R)-1-[(3aS,4S,6S,7aR)-hexahydro-3a,5,5-trimethyl-4,6-methano-1,3,2-benzodioxaborol-2-yl]-3-methylbutyl]amino]carbonyl]-2-hydroxypropyl]]	< 100	< 200
CCCCc1ccc(C(=O)N[C@H](C(=O)N[C@@H](CC(C)C)B2O[C@@H]3C[C@@H]4C[C@@H](C4(C)C)[C@]3(C)O2)[C@@H](C)O)cc1 [D.3.179, 4-butylbenzamide, N-[(1S,2R)-1-[[[(1R)-1-[(3aS,4S,6S,7aR)-hexahydro-3a,5,5-trimethyl-4,6-methano-1,3,2-benzodioxaborol-2-yl]-3-methylbutyl]amino]-carbonyl]-2-hydroxypropyl]-]	< 10	< 200
CC(C)C[C@H](NC(=O)[C@@H](NC(=O)c1ccc2ccccc2c1)[C@@H](C)O)B1O[C@@H]2C[C@@H]3C[C@@H](C3(C)C)[C@]2(C)O1 [D.3.180, Naphthalene-2-carboxamide,N-[(1S,2R)-1-[[[(1R)-1-[(3aS,4S,6S,7aR)-hexahydro-3a,5,5-trimethyl-4,6-methano-1,3,2-benzodioxaborol-2-yl]-3-methylbutyl]amino]carbonyl]-2-hydroxypropyl]]	< 10	< 200
Cc1ccc(S(=O)(=O)CC(=O)N[C@@H](CCCNC(=N)N[N+](=O)[O-])C(=O)N[C@@H](CC(C)C)B2O[C@@H]3C[C@@H]4C[C@@H](C4(C)C)[C@]3(C)O2)cc1 [D.3.182]	< 100	200 to 2000
CC(C)C[C@H](NC(=O)[C@H](CCCNC(=N)N[N+](=O)[O-])NC(=O)CS(=O)(=O)c1ccccc1)B1O[C@@H]2C[C@@H]3C[C@@H](C3(C)C)[C@]2(C)O1 [D.3.185, 2-(Benzenesulfonyl)acetamide,N-[(1S)-1-[[[(1R)-1-[(3aS,4S,6S,7aR)-hexahydro-3a,5,5-trimethyl-4,6-methano-1,3,2-benzodioxaborol-2-yl]-3-methylbutyl]amino]carbonyl]-4-[[imino(nitroamino)methyl]amino]butyl]]	< 10	< 200
CC(C)C[C@H](NC(=O)[C@H](CCCNC(=N)N[N+](=O)[O-])NC(=O)CCCCCCCCC#N)B1O[C@@H]2C[C@@H]3C[C@@H](C3(C)C)[C@]2(C)O1 [D.3.186, 9-Cyanononamide, N-[(1S)-1-[[[(1R)-1-[(3aS,4S,6S,7aR)-hexahydro-3a,5,5-trimethyl-4,6-methano-1,3,2-benzodioxaborol-2-yl]-3-methylbutyl]amino]carbonyl]-4-[[imino(nitroamino)methyl]amino]butyl]]	< 10	< 200
CC(C)C[C@H](NC(=O)[C@H](CCCNC(=N)N[N+](=O)[O-])NC(=O)CCCCCCCCCCCN1C(=O)c2ccccc2C1=O)B1O[C@@H]2C[C@@H]3C[C@@H](C3(C)C)[C@]2(C)O1 [D.3.189, 12-(1,3-Dioxo-1,3-dihydro-isoindol-2-yl)-dodecanamide, N-[(1S)-1-[[[(1R)-1-[(3aS,4S,6S,7aR)-hexahydro-3a,5,5-trimethyl-4,6-methano-1,3,2-benzodioxaborol-2-yl]-3-methylbutyl]amino]carbonyl]-4-[[imino(nitroamino)methyl]amino]butyl]]	< 10	< 200
CC(C)C[C@H](NC(=O)[C@H](CCCNC(=N)N[N+](=O)[O-])NC(=O)CCc1ccc(C(C)C)cc1)B1O[C@@H]2C[C@@H]3C[C@@H](C3(C)C)[C@]2(C)O1 [D.3.190, 3-[4-(2-Propyl)phenyl]propanamide, N-[(1S)-1-[[[(1R)-1-[(3aS,4S,6S,7aR)-hexahydro-3a,5,5-trimethyl-4,6-methano-1,3,2-benzodioxaborol-2-yl]-3-methylbutyl]amino]carbonyl]-4-[[imino(nitroamino)methyl]amino]butyl]]	< 10	< 200
CCc1ccc(CCC(=O)N[C@@H](CCCNC(=N)N[N+](=O)[O-])C(=O)N[C@@H](CC(C)C)B2O[C@@H]3C[C@@H]4C[C@@H](C4(C)C)[C@]3(C)O2)cc1 [D.3.191, 3-[4-(Ethyl)phenyl]propanamide, N-[(1S)-1-[[[(1R)-1-[(3aS,4S,6S,7aR)-hexahydro-3a,5,5-trimethyl-4,6-methano-1,3,2-benzodioxaborol-2-yl]-3-methylbutyl]amino]carbonyl]-4-[[imino(nitroamino)methyl]amino]butyl]]	< 10	< 200
CC(C)C[C@H](NC(=O)[C@H](CCCNC(=N)N[N+](=O)[O-])NC(=O)CCCCCO)B1O[C@@H]2C[C@@H]3C[C@@H](C3(C)C)[C@]2(C)O1 [D.3.192, 6-hydroxyhexanamide, N-[(1S)-1-[[[(1R)-1-[(3aS,4S,6S,7aR)-hexahydro-3a,5,5-trimethyl-4,6-methano-1,3,2-benzodioxaborol-2-yl]-3-methylbutyl]amino]carbonyl]-4-[[imino(nitroamino)methyl]amino]butyl]]	< 100	2000 to 10000
CCCCCCCCCCS(=O)(=O)N[C@@H](CCCNC(=N)N[N+](=O)[O-])C(=O)N[C@@H](CC(C)C)B1O[C@@H]2C[C@@H]3C[C@@H](C3(C)C)[C@]2(C)O1 [D.4.3, Decane-1-sulfonamide, N-[(1S)-1-[[[(1R)-1-[(3aS,4S,6S,7aR)-hexahydro-3a,5,5-trimethyl-4,6-methano-1,3,2-benzodioxaborol-2-yl]-3-methylbutyl]amino]carbonyl]-4-[[imino(nitroamino)methyl]amino]butyl]]	< 10	< 200
CCCCCCCCS(=O)(=O)N[C@@H](CCCNC(=N)N[N+](=O)[O-])C(=O)N[C@@H](CC(C)C)B1O[C@@H]2C[C@@H]3C[C@@H](C3(C)C)[C@]2(C)O1 [D.4.4, Octanesulfonamide, N-[(1S)-1-[[[(1R)-1-[(3aS,4S,6S,7aR)-hexahydro-3a,5,5-trimethyl-4,6-methano-1,3,2-benzodioxaborol-2-yl]-3-methylbutyl]amino]carbonyl]-4-[[imino(nitroamino)methyl]amino]butyl]]	< 10	< 200
